According to PubChem BioAssay (NCI):
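Tested at 5 concentrations; 48 h exposure; 96-well plates; endpoints linearly interpolated, else capped at highest concentration. GI50 is the concentration that inhibits growth by half. TGI: total growth inhibition.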

Legend:
Test in all cases: growth of human tumour cells (NCI), 48 h
EKVX NSCLC = system: EKVX NSCLC
NCI-H460 lung = system: NCI-H460 lung
OVCAR-5 ovarian = system: OVCAR-5 ovarian
KM12 colon = system: KM12 colon
HOP-92 NSCLC = system: HOP-92 NSCLC
M14 melanoma = system: M14 melanoma
K-562 leukemia = system: K-562 leukemia
OVCAR-8 ovarian = system: OVCAR-8 ovarian
NCI-H23 lung = system: NCI-H23 lung
HCT-116 colon = system: HCT-116 colon

SMILES | GI50 (EKVX NSCLC) | TGI (EKVX NSCLC) | GI50 (NCI-H460 lung) | TGI (NCI-H460 lung) | GI50 (OVCAR-5 ovarian) | TGI (OVCAR-5 ovarian) | GI50 (KM12 colon) | TGI (KM12 colon) | GI50 (HOP-92 NSCLC) | TGI (HOP-92 NSCLC) | GI50 (M14 melanoma) | TGI (M14 melanoma) | GI50 (K-562 leukemia) | TGI (K-562 leukemia) | GI50 (OVCAR-8 ovarian) | TGI (OVCAR-8 ovarian) | GI50 (NCI-H23 lung) | TGI (NCI-H23 lung) | GI50 (HCT-116 colon) | TGI (HCT-116 colon)
Cc1c(C(N)=O)sc2c1c(=O)n(Cc1ccccc1)c1nnc(-c3ccc(Br)cc3)n21 | 3.11 µM | 21.6 µM | 0.813 µM | 6.55 µM | 7.17 µM | 21.3 µM | 3.31 µM | 17.9 µM | 5.09 µM | 21.3 µM | 1.51 µM | 3.67 µM | 3.09 µM | 20.4 µM | 2.21 µM | 15 µM | 3.11 µM | 15.2 µM | 1.75 µM | 13.6 µM
Cc1cc(O)c(/C=N/C(=S)Nc2ccccc2)c(=O)o1 | – | > 100 µM | – | > 100 µM | – | > 100 µM | – | > 100 µM | – | > 100 µM | – | > 100 µM | – | > 100 µM | – | > 100 µM | – | > 100 µM | – | > 100 µM
Clc1ccccc1C(Nc1ncccn1)Nc1ncccn1 | – | > 100 µM | – | > 100 µM | – | > 100 µM | – | > 100 µM | – | > 100 µM | – | > 100 µM | – | > 100 µM | – | > 100 µM | – | > 100 µM | – | > 100 µM
COc1ccc(C(CC(=O)c2ccccc2)C(C(=O)c2ccccc2)C(c2ccc(OC)cc2)C2C(=O)NC(=S)NC2=O)cc1 (stereo not given) | 2.44 µM | 57.2 µM | 5.88 µM | 50.7 µM | 13.9 µM | 37.7 µM | 8.12 µM | 39.8 µM | 3.1 µM | 43.1 µM | 36.9 µM | > 100 µM | 24.8 µM | > 100 µM | 13.5 µM | 45.6 µM | 14.3 µM | 46.6 µM | 15.4 µM | 37.4 µM
COc1cccc2c1C(=O)OC2c1cccc2ccccc12 (stereo not given) | – | > 100 µM | – | > 100 µM | – | > 100 µM | – | > 100 µM | – | > 100 µM | – | > 100 µM | – | > 100 µM | – | > 100 µM | – | > 100 µM | – | > 100 µM
O=C(CCc1nnc2s/c(=C\c3ccccc3Cl)c(=O)n12)Nc1cc(Cl)ccc1Cl | – | > 100 µM | – | > 100 µM | – | > 100 µM | – | > 100 µM | – | > 100 µM | – | > 100 µM | – | > 100 µM | – | > 100 µM | – | > 100 µM | – | > 100 µM
C#COc1cccc(Nc2ncnc3cc(NC(=O)[C@H](C)Cl)ccc23)c1 | 17.4 µM | > 62.5 µM | 2.18 µM | > 62.5 µM | 3.84 µM | > 62.5 µM | 2.44 µM | > 62.5 µM | > 62.5 µM | > 62.5 µM | 2.27 µM | > 62.5 µM | 2.03 µM | > 62.5 µM | 4.5 µM | > 62.5 µM | 7.66 µM | > 62.5 µM | 2.23 µM | > 62.5 µM
Cc1cn(-c2ccc(S(C)(=O)=O)cc2)c(-c2ccc(Cl)cc2)n1 | > 100 µM | > 100 µM | > 100 µM | > 100 µM | > 100 µM | > 100 µM | > 100 µM | > 100 µM | > 100 µM | > 100 µM | > 100 µM | > 100 µM | > 100 µM | > 100 µM | > 100 µM | > 100 µM | > 100 µM | > 100 µM | > 100 µM | > 100 µM
C#CC1(O)CCC2[C@@H]3CCc4cc(Oc5nc(F)nc(-c6c7ccccc7cn6C)n5)ccc4C3CC[C@@]21C (stereo not given in full) | – | > 100 µM | – | > 100 µM | – | > 100 µM | – | > 100 µM | – | > 100 µM | – | > 100 µM | – | > 100 µM | – | > 100 µM | – | > 100 µM | – | > 100 µM
O=c1cc(-c2ccccc2)oc2cc(OC/C(=N/O)c3ccc(F)cc3)ccc12 | 17.2 µM | > 50 µM | 12.9 µM | 44.2 µM | > 50 µM | > 50 µM | 11.3 µM | 29.2 µM | 28.6 µM | > 50 µM | 46.7 µM | > 50 µM | 27.5 µM | > 50 µM | 32.2 µM | > 50 µM | 31.8 µM | > 50 µM | 23.4 µM | > 50 µM
Cc1nc2sccn2c1C(=O)NC(=O)Nc1ccc(Cl)cc1 | – | > 100 µM | – | > 100 µM | – | > 100 µM | – | > 100 µM | – | 74.3 µM | – | > 100 µM | – | > 100 µM | – | > 100 µM | – | > 100 µM | – | > 100 µM
O=C(CC(=O)c1cccc(Cl)c1)c1cccc(Cl)c1 | 2.16 µM | > 100 µM | 0.95 µM | > 100 µM | 4.3 µM | > 100 µM | 3.02 µM | > 100 µM | 1.95 µM | > 100 µM | 2.35 µM | > 100 µM | 1.12 µM | > 100 µM | 2.6 µM | > 100 µM | 1.91 µM | > 100 µM | 1.15 µM | > 100 µM
CCn1c2c(c3ccccc31)C(c1ccccc1)CC1C(=O)N(c3ccccc3)C(=O)C21 (stereo not given) | – | > 100 µM | – | > 100 µM | – | > 100 µM | – | > 100 µM | – | 75.7 µM | – | > 100 µM | – | > 100 µM | – | > 100 µM | – | > 100 µM | – | > 100 µM
Cc1cc(=O)[nH]c(CNC(=O)c2cccc(C(=O)NCc3cc(=O)[nH]c(C)n3)c2)n1 | – | > 100 µM | – | > 100 µM | – | > 100 µM | – | > 100 µM | – | > 100 µM | – | > 100 µM | – | > 100 µM | – | > 100 µM | – | > 100 µM | – | > 100 µM
CCOC(=O)c1ccc2c(c1)[n+](=O)c(C(C)=O)c(C(F)(F)F)n2[O-] | 1.82 µM | 3.96 µM | 1.46 µM | 2.86 µM | 1.56 µM | 3.22 µM | 1.47 µM | 2.89 µM | 1.4 µM | 2.86 µM | 1.7 µM | 3.67 µM | 1.16 µM | 2.52 µM | 2.42 µM | 9.25 µM | 1.54 µM | 3.43 µM | 1.39 µM | 3.34 µM
